Measurements published in article PMC9728906 (2022).

Tests used:
[1] = tested on: human telomeric G-quadruplex DNA, AG3(TTAGGG)3 (DNA, G4) AGGGTTAGGGTTAGGGTTAGGG; assay: CD melting at 293 nm; conditions: 100 mM KCl; 10 mM Tris-HCl, 1 mM Na2EDTA, pH 7.4, 10% ethylene glycol; equimolar 3.93 µM compound and DNA (1:1)
[2] = tested on: human telomeric G-quadruplex DNA, AG3(TTAGGG)3 (DNA, G4) AGGGTTAGGGTTAGGGTTAGGG; assay: fluorescence titration, modified Scatchard, non-linear fit (r versus Cf); conditions: 100 mM KCl; 10 mM Tris-HCl, 1 mM Na2EDTA, pH 7.4, ≤10% ethylene glycol; 5 µM compound; average over sites
[3] = tested on: human telomeric G-quadruplex DNA, AG3(TTAGGG)3 (DNA, G4) AGGGTTAGGGTTAGGGTTAGGG; assay: fluorescence titration, Scatchard, two-line linear fit; conditions: 100 mM KCl; 10 mM Tris-HCl, 1 mM Na2EDTA, pH 7.4, ≤10% ethylene glycol; 5 µM compound; site 1 of 2
[4] = tested on: fluorescein-labelled telomeric G-quadruplex DNA (DNA, G4) AGGGTTAGGGTTAGGGTTAGGG; assay: fluorescein fluorescence quenching; conditions: 100 mM KCl; 10 mM Tris-HCl, 1 mM Na2EDTA, pH 7.4; 2 µM DNA; more than 90% quenching

Row | ΔTm [1] [°C] | K [2] [M⁻¹] | K1 [3] [M⁻¹] | binding [4] | SMILES
1 | 9.9 | 2.65e+06 | 1.3e+08 | yes | CN(C)c1cc2c(Nc3ccc4c(cnn4Cc4ccccc4)c3)ncnc2cn1
2 | 9.6 | 700000 | 1.55e+07 | yes | COc1ccc(CCCn2ncc3c2nc(N)n2nc(-c4ccco4)nc32)cc1
